This is an account of results in US20220220115A1, “HETEROCYCLIC COMPOUNDS AND USES THEREOF” (Nuvation Bio Inc., priority 2019, published 2022).

Structures are written as SMILES. A value given as a limit tells only on which side of the number the result lay.

Experiment [1] relates to A427 cell line. Put plainly: Cytotoxicity assay in A427 cell line (resazurin). Format: cell-based. The following applies: Homo sapiens, A-427, A427 cells, 72 hr incubation, inhibition of proliferation. The procedure: A427 (HTB-53; ATCC), a lung epithelial cell line, was seeded in medium (MEM, 41090101; Gibco) at a cell count of 1500 cells per 100 μL per well in a 96 well edge plate (167425; ThermoFisher). Cells were allowed to grow at 37° C. for 24 hr in 5% CO2 environment (culture conditions) in a Nuaire incubator (humidified). Serially diluted test compounds (100 μL) within the desired testing concentration ranges were added to the culture plate and the cells were further incubated in culture conditions for 72 hr. The experiment was terminated at the designated incubation time by replacing the medium with 100 μL of 1 mM of resazurin (R7017; Sigma) prepared in culture medium, and the plates were further incubated in culture conditions for 4-6 hr. Fluorescence was recorded using a multimodal plate reader (Biotek Synergy Neo) at an excitation wavelength of 535 nm and emission wavelength of 590 nm to obtain relative fluorescence units. Data were analysed as follows: the background fluorescence (blank containing only medium) value was subtracted from each reading and normalized with the vehicle control (DMSO treated cells) to obtain percent survival/proliferation. Percent survival was subtracted from 100 to get the percent inhibition of proliferation which was used to calculate IC50 values. Potency of compounds in other cell lines (such as A549, As-Pc-1, Panc 10.05, A172, U-87 MG) may be determined in an analogous manner.

Experiment [2] deals with T1, WEE1 kinase enzyme (Homo sapiens, UniProt P30291).
T1 construct: purchased Invitrogen, Life Technologies PR7373A
T1 sequence (P30291 whole entry): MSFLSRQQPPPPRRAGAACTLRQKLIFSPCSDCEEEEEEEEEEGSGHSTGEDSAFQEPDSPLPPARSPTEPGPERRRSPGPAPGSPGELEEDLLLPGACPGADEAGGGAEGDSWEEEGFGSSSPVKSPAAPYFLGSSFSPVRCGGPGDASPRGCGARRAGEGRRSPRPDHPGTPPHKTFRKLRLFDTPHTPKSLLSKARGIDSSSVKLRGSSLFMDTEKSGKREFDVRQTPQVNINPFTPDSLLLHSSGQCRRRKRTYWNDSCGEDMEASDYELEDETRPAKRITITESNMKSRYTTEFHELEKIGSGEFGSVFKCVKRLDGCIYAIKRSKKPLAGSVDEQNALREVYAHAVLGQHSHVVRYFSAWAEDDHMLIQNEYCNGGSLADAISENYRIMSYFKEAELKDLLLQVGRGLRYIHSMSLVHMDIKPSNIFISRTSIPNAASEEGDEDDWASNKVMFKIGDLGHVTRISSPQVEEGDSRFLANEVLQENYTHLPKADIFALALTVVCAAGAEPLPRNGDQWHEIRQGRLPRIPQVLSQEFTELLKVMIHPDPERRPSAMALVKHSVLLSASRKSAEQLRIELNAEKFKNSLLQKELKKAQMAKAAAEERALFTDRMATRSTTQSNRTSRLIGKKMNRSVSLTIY
The experiment is described as follows: WEE1 IC50 determination, LanthaScreen Terbium Labeled TR-FRET kinase assay. Type of experiment: biochemical. The following applies: WEE1 enzyme 1 nM, ATP 10 μM. The procedure:
IC50 values of compounds against WEE1 kinase enzyme were determined by LanthaScreen™ Terbium Labeled TR-FRET assay. Kinase assays were performed in 1× kinase buffer (#PV6135, Invitrogen, Life Technologies Grand Island, N.Y.) where total reaction volume was 10 μL in low-volume 384-well plates (#4511, Corning). Serially diluted compounds (3-fold) were incubated with WEE1 Enzyme (1 nM) (#PR7373A, Invitrogen, Life Technologies Grand Island, N.Y.) for 10 min, and a mixture of ATP (10 μM) (#A1852, Sigma, St. Louis, Mo.) and fluorescent-PolyGT substrate (200 nM) (#PV3610, Invitrogen, Life Technologies, Grand Island, N.Y.) was added and incubated in dark at room temperature for 1 h. After 1 h, 10 μL stop solution containing Terbium labeled antibody (4 nM) (#PV3529, Invitrogen, Life Technologies Grand Island, N.Y.) and EDTA (#E5134, Sigma, St. Louis, Mo.) (20 mM) in TR-FRET dilution buffer (#PV3574, Invitrogen, Life Technologies, Grand Island, N.Y.) was added. Readings were taken in a Synergy Neo Plate reader (BioTek, Winooski, Vt.) at single excitation of 340 nm and dual emission at 495 nm and 520 nm respectively.
The % activity of test samples was calculated as (Sample−Min)*100/(Max−Min). [Max: DMSO control, complete reaction with enzyme & DMSO and Min: No enzyme & DMSO]. Percent inhibition (100−% activity) was fitted to the “four-parameter logistic model” in XLfit for determination of IC50 values.
On the technique in general: TR-FRET usually uses a lanthanide donor and a delayed reading to cut background.

For experiment [3], the system named is phospho-CDC2 (Tyr15) in A427 cells. The experiment is described as follows: Phospho-CDC2 (Tyr15) sandwich ELISA in A427 cells. Type of experiment: cell-based. The following applies: Homo sapiens, A-427, treatment for a specified time (e.g., 24 hr). The procedure: Changes in the levels of phospho-CDCl2 following treatment of cells with test compounds were assessed by enzyme-linked immunosorbent assay (ELISA). A427 cells were plated in 6-well plates and cultured for 24 hr to approximately 80-90% confluency. Medium was replaced, and the cells were treated with the vehicle control or the test compound at several different concentrations. After incubation of treated cells in cell culture conditions for a specified time (e.g., 24 hr), cells were rinsed with ice-cold PBS and lysed in 1× cell lysis buffer containing protease inhibitors and phosphatase inhibitors. The cells were scraped from the plate with a cell scraper after a brief incubation on ice and transferred to a centrifuge tube, and then subjected to three freeze-thaw cycles in liquid nitrogen and a 37° C. water bath for further lysis. The lysates were centrifuged to pellet cell debris (using, for example, a 10 min centrifugation of 2000×g at 4° C.) and the supernatants transferred to fresh tubes on ice. The protein concentrations of the samples were estimated by the Bradford method or equivalent. The ELISA was carried out with the PathScan® Phospho-CDCl2 (Tyr15) Sandwich ELISA Kit (Cat. #7176, Cell Signaling Technology, Danvers, Mass.) according to the manufacturer's instructions.
(In general: An ELISA detects its analyte on a solid surface through an enzyme-linked reagent.)

What is called IC50 is the concentration at which inhibition is half-maximal. With `CC(C)n1c(=O)c2cnc(Nc3ccc4c(c3)CNCC4)nc2n1-c1csc(N2CCOCC2)n1` [Compound No. 1.7, 2-isopropyl-1-(2-morpholinothiazol-4-yl)-6-((1,2,3,4-tetrahydroisoquinolin-7-yl)amino)-1,2-dihydro-3H-pyrazolo[3,4-d]pyrimidin-3-one], the IC50 in experiment [1] was more than 30 µM; in experiment [2], 0.057 µM.
For `CC(C)n1c(=O)c2cnc(Nc3ccc4c(c3)CCNC4)nc2n1-c1nc(C(C)(C)C)cs1` [Compound No. 1.1, 1-(4-(tert-butyl)thiazol-2-yl)-2-isopropyl-6-((1,2,3,4-tetrahydroisoquinolin-6-yl)amino)-1,2-dihydro-3H-pyrazolo[3,4-d]pyrimidin-3-one] the same measures were 0.53 µM and 0.004 µM.
As for `CC(C)(CF)c1cccc(-n2c3nc(Nc4ccc5c(c4)CCNC5(C)C)ncc3c(=O)n2C2CC2)n1` [Compound No. 1.79, 2-cyclopropyl-6-((1,1-dimethyl-1,2,3,4-tetrahydroisoquinolin-6-yl)amino)-1-(6-(1-fluoro-2-methylpropan-2-yl)pyridin-2-yl)-1,2-dihydro-3H-pyrazolo[3,4-d]pyrimidin-3-one], the values for the IC50 in experiment [1] and in experiment [2] were 0.97 µM and 0.009 µM, respectively.
Taken in the same sequence, the figures for `CCn1c(=O)c2cnc(Nc3ccc4c(c3)CCNC4)nc2n1-c1cccc(C(C)(C)C#N)n1` [Compound No. 1.4, 2-(6-(2-ethyl-3-oxo-6-((1,2,3,4-tetrahydroisoquinolin-6-yl)amino)-2,3-dihydro-1H-pyrazolo[3,4-d]pyrimidin-1-yl)pyridin-2-yl)-2-methylpropanenitrile] were 0.32 µM and 0.003 µM.
For `CC(C)(C)c1csc(-n2c3nc(Nc4ccc5c(c4)CNCC5)ncc3c(=O)n2CC(F)(F)F)n1` [Compound No. 1.12, 1-(4-(tert-butyl)thiazol-2-yl)-6-((1,2,3,4-tetrahydroisoquinolin-7-yl)amino)-2-(2,2,2-trifluoroethyl)-1,2-dihydro-3H-pyrazolo[3,4-d]pyrimidin-3-one] the same measures were 2.37 µM and 0.003 µM.
Taken in the same sequence, the figures for `CC(C)(C#N)c1cccc(-n2c3nc(Nc4ccc5c(c4)CCNC5(C)C)ncc3c(=O)n2CC(F)(F)F)n1` [Compound No. 1.33, 2-(6-(6-(1,1-dimethyl-1,2,3,4-tetrahydroisoquinolin-6-ylamino)-3-oxo-2-(2,2,2-trifluoroethyl)-2,3-dihydro-1H-pyrazolo[3,4-d]pyrimidin-1-yl)pyridin-2-yl)-2-methylpropanenitrile] were 0.513 µM and 0.005 µM.
For the compound `CCn1c(=O)c2cnc(Nc3ccc4c(c3)CNCC4)nc2n1-c1nc(C(C)(C)C)cs1` [Compound No. 1.8, 1-(4-(tert-butyl)thiazol-2-yl)-2-ethyl-6-((1,2,3,4-tetrahydroisoquinolin-7-yl)amino)-1,2-dihydro-3H-pyrazolo[3,4-d]pyrimidin-3-one], the half-maximal inhibitory concentration (IC50) in experiment [1] was 0.993 µM; in experiment [2] it was 0.004 µM.
For `CC(C)(C#N)c1cccc(-n2c3nc(Nc4ccc5c(c4)CNCC5)ncc3c(=O)n2CC(F)(F)F)n1` [Compound No. 1.32, 2-methyl-2-(6-(3-oxo-6-(1,2,3,4-tetrahydroisoquinolin-7-ylamino)-2-(2,2,2-trifluoroethyl)-2,3-dihydro-1H-pyrazolo[3,4-d]pyrimidin-1-yl)pyridin-2-yl)propanenitrile], the concentration for half-maximal inhibition (IC50) in experiment [1] was found to be 0.223 µM; in experiment [2] it was 0.01 µM.
Taken in the same sequence, the figures for `O=c1c2cnc(Nc3ccc4c(c3)CCNC4)nc2n(-c2cccc(C3(CO)CC3)n2)n1CC(F)(F)F` [1.225, 1-(6-(1-(hydroxymethyl)cyclopropyl)pyridin-2-yl)-6-(1,2,3,4-tetrahydroisoquinolin-6-ylamino)-2-(2,2,2-trifluoroethyl)-1H-pyrazolo[3,4-d]pyrimidin-3(2H)-one] were 0.375 µM and 0.001 µM.
For `CC(C)(C)c1csc(-n2c3nc(Nc4ccc5c(c4)CCNC5)ncc3c(=O)n2CC(F)(F)F)n1` [Compound No. 1.11, 1-(4-(tert-butyl)thiazol-2-yl)-6-((1,2,3,4-tetrahydroisoquinolin-6-yl)amino)-2-(2,2,2-trifluoroethyl)-1,2-dihydro-3H-pyrazolo[3,4-d]pyrimidin-3-one] the same measures were 1.58 µM and 0.019 µM.
`CC(C)n1c(=O)c2cnc(Nc3ccc4c(c3)CNCC4)nc2n1-c1cccc(C2(CO)CC2)n1` [1.224, 1-(6-(1-(hydroxymethyl)cyclopropyl)pyridin-2-yl)-2-isopropyl-6-((1,2,3,4-tetrahydroisoquinolin-7-yl)amino)-1,2-dihydro-3H-pyrazolo[3,4-d]pyrimidin-3-one]: the results for the IC50 in experiment [1], in experiment [3] and in experiment [2] were 0.243 µM, 0.057 µM and 0.004 µM, respectively.
On to `CCn1c(=O)c2cnc(Nc3ccc4c(c3)CCNC4)nc2n1-c1nc(C(C)(C)C)cs1` [Compound No. 1.10, 1-(4-(tert-butyl)thiazol-2-yl)-2-ethyl-6-((1,2,3,4-tetrahydroisoquinolin-6-yl)amino)-1,2-dihydro-3H-pyrazolo[3,4-d]pyrimidin-3-one], for which the 50% inhibitory concentration (IC50) was 1.49 µM in experiment [1] and 0.007 µM in experiment [2].
Taken in the same sequence, the figures for `CCn1c(=O)c2cnc(Nc3ccc4c(c3)CNCC4)nc2n1-c1cccc(C(C)(C)C#N)n1` [Compound No. 1.223, 2-(6-(2-ethyl-3-oxo-6-(1,2,3,4-tetrahydroisoquinolin-7-ylamino)-2,3-dihydro-1H-pyrazolo[3,4-d]pyrimidin-1-yl)pyridin-2-yl)-2-methylpropanenitrile] were 0.102 µM and 0.007 µM.
Consider `CC(C)(C)c1csc(-n2c3nc(Nc4ccc5c(c4)CNCC5)ncc3c(=O)n2C2CC2)n1` [Compound No. 1.6, 1-(4-(tert-butyl)thiazol-2-yl)-2-cyclopropyl-6-((1,2,3,4-tetrahydroisoquinolin-7-yl)amino)-1,2-dihydro-3H-pyrazolo[3,4-d]pyrimidin-3-one], for which the IC50 in experiment [1] was found to be 1.15 µM; in experiment [3], 1.12 µM; in experiment [2] it was 0.006 µM.
In the case of `CC(C)n1c(=O)c2cnc(Nc3ccc4c(c3)CCNC4)nc2n1-c1csc(N2CCOCC2)n1` [Compound No. 1.3, 2-isopropyl-1-(2-morpholinothiazol-4-yl)-6-((1,2,3,4-tetrahydroisoquinolin-6-yl)amino)-1,2-dihydro-3H-pyrazolo[3,4-d]pyrimidin-3-one], the IC50 is more than 30 µM in experiment [1] and 0.008 µM in experiment [2].
In the case of `CC(C)n1c(=O)c2cnc(Nc3ccc4c(c3)CNCC4)nc2n1-c1nc(C(C)(C)C)cs1` [Compound No. 1.2, 1-(4-(tert-butyl)thiazol-2-yl)-2-isopropyl-6-((1,2,3,4-tetrahydroisoquinolin-7-yl)amino)-1,2-dihydro-3H-pyrazolo[3,4-d]pyrimidin-3-one], the figures for the concentration for half-maximal inhibition (IC50) in experiment [1] and in experiment [2] were 0.585 µM and less than 0.0002 µM, respectively.
Taken in the same sequence, the figures for `CC(C)(C)c1csc(-n2c3nc(Nc4ccc5c(c4)CCNC5)ncc3c(=O)n2C2CC2)n1` [Compound No. 1.5, 1-(4-(tert-butyl)thiazol-2-yl)-2-cyclopropyl-6-((1,2,3,4-tetrahydroisoquinolin-6-yl)amino)-1,2-dihydro-3H-pyrazolo[3,4-d]pyrimidin-3-one] were 1.27 µM and 0.018 µM.
